Assays:
[1] = system: tumor-bearing mice prepared using a murine colon cancer cell line, CT26; experiment: Inhibitory effect on weight loss of tumor-bearing mice (CT26 colon cancer transplant); assay type: in vivo, BALB/c mice
Text: Inhibitory Effect on Weight Loss of Tumor-Bearing Mice
Tumor-bearing mice prepared using a murine colon cancer cell line, colon 26, are known to closely reproduce the symptoms of cancer cachexia (Cancer Research, 50, 4528-4532 (1990)). In this experiment, using tumor-bearing mice prepared using a murine colon cancer cell line, CT26, that was established in the same method as that for producing the murine colon cancer cell line, colon 26, (The Journal of Immunology, 154, 4685-4692 (1995)), Compound A of the present invention was evaluated for effects on the body weights of said mice. That is, CT26 colon cancer cells (5×10^6) were subcutaneously transplanted in the flank of BALB/c mice at 7 weeks of age. The transplanted mice were divided into two groups, and once every day from the following day of the transplantation, water for injection was orally administered to the control group, whereas Compound A was orally administered at a dose of 75 mg/kg to the compound administration group. The administered volume was […]. Five and ten days after the transplantation, the tumor size (major axis and minor axis) in each mouse was measured, and the tumor volume was calculated from the following formula: (major axis)×(minor axis)^2/2. In addition, the body weight of each mouse was measured daily after the transplantation. The tumor volume 5 and 10 days after the transplantation of the CT26 murine colon cancer cells, and the body weight 10 days after the transplantation are shown in Table 1. Data are expressed as the mean±standard error.

[2] = system: rats with transplanted cancer tissue (sarcoma cells induced by methylcholanthrene); experiment: Inhibitory effect on weight loss of rats with transplanted cancer (methylcholanthrene-induced sarcoma); assay type: in vivo; settings: once a day for 5 to 14 days from 6-7 days after transplantation, dose-dependent, result in words
Text: Inhibitory Effect on Weight Loss of Rats with Transplanted Cancer
The effect of Compound A was examined using this model. Sarcoma cells induced by methylcholanthrene were subcutaneously injected into the abdomen of rats. The rats were reared in a normal environment for about eight days and in this way animals used to provide cancer were produced. An amount of 0.2 to 0.3 g of fresh cancer tissue obtained from the animals used to provide cancer was subcutaneously transplanted into the abdomen of rats under anesthesia. From 6 days to 7 days after the transplantation of the cancer, Compound A was administered once a day for 5 days to 14 days, and the body weight was daily measured.
An experiment was conducted on Compound B in the same manner as described above.

[3] = CT26 tumor-bearing BALB/c mice, 75 mg/kg orally once daily from the day after transplantation, mean ± standard error

SMILES | Body weight 10 days after transplantation [1, 3] [g] | Tumor volume 5 days after transplantation [1, 3] [mm^3] | Tumor volume 10 days after transplantation ([1]; CT26 tumor-bearing BALB/c mice, 75 mg/kg orally once daily from the day after transplantation, mean ± standard error, 75 mg/kg) [mm^3] | Effect on body weight 10 days after transplantation in comparison with the control group ([1]; CT26 tumor-bearing mice, 75 mg/kg orally, critical ratio of 0.1% or lower, result in words) | Effect on tumor volume in comparison with the control group ([1]; CT26 tumor-bearing mice, 75 mg/kg orally, result in words) | Progression of the weight loss in tumor-bearing animals [2]
CN1N=C2CCN(C(=O)[C@@H](COCc3ccccc3)NC(=O)C(C)(C)N)C[C@@]2(Cc2ccccc2)C1=O [Compound A, 2-amino-N-[2-(3a-(R)-benzyl-2-methyl-3-oxo-2,3,3a,4,6,7-hexahydro-pyrazolo[4,3-c]pyridin-5-yl)-1-(R)-benzyloxymethyl-2-oxo-ethyl]-isobutyramide] | 22.3 ± 0.2 | 137 ± 8 | 291±25 | significantly increased the body weight | not capable of reducing the tumor volume | significantly inhibited the progression of the weight loss
CC(C)(N)C(=O)N[C@H](COCc1ccc(F)cc1F)C(=O)N1CCC2=NN(CC(F)(F)F)C(=O)[C@]2(Cc2ccccn2)C1 [Compound B, 2-amino-N-[1-(R)-(2,4-difluoro-benzyloxymethyl)-2-oxo-2-(3-oxo-3a-(R)-pyridin-2-ylmethyl-2-(2,2,2-trifluoro-ethyl)-2,3,3a,4,6,7-hexahydro-pyrazolo[4,3-c]pyridin-5-yl)-ethyl]-2-methyl-propionamide] | – | – | – | – | – | significantly inhibited the progression of the weight loss
